The assay relates to NIH-3T3 tranfectant overexpressing mutant K-ras 4B. The assay is described as follows: Prenylation of K-ras 4B in intact cells (anti-Pan-ras immunoblot, densitometric scanning). The assay is classed as cell-based. The settings on record: 72 hours at 37° C.; 0, 1.0, 5.0, 10.0 and 25 μm FTase inhibitor in the presence versus absence of 5,M of hydrolysed lovastatin. The method, then:
The effectiveness of the FTase inhibitor 6-[(4-chloro-phenyl)-hydroxy-(3-methyl-3H-imidazol4-yl)-methyl]-4-(3-ethynyl-phenyl)-1-methyl-1H-quinolin-2-one on prenylation of K-ras 4B in intact cells is enhanced by a minimally effective dose of lovastatin. Semi-confluent monolayers of the NIH-3T3 tranfectant overexpressing mutant K-ras 4B are treated for 72 hours at 37° C. with increasing concentrations (0, 1.0 μm, 5.0 μm 10.0 μm and 25 μm) of 6-[(4-chloro-phenyl)-hydroxy-(3-methyl-3H-imidazol4-yl)-methyl]4-(3-ethynyl-phenyl)-1-methyl-1H-quinolin-2-one in the presence and absence of 5,M of hydrolysed lovastatin. […] The blots are incubated with peroxidase-conjugated secondary antibody, and the immunoblotted Ras protein are detected by enhanced chemiluminescence (Amersham Life Products, Arlington Heights, Ill.). Percent of prenylated Ras is determined by densitometric scanning using MasterScan 3.0 (Scanalytics, Billerica, Mass.). […]

Take `C#Cc1cccc(-c2cc(=O)n(C)c3ccc(C(O)(c4ccc(Cl)cc4)c4cncn4C)cc23)c1` (stereo not shown) [6-[(4-chloro-phenyl)-hydroxy-(3-methyl-3H-imidazol4-yl)-methyl]-4-(3-ethynyl-phenyl)-1-methyl-1H-quinolin-2-one]: the “effectiveness on the inhibition of prenylation of K-ras 4B in intact cells (percent of prenylated Ras)” value is “enhanced”.
